According to patent US5356907A, “1-cycloalkylpyridones as analgesics” (priority 1989, dated 1994):

Key:
cardiac rhythm disorders = assay: Anti-arythmic action in the rat (aconitine perfusion); assay type: in vivo; settings: intravenous, 5 minutes before aconitine 10 micrograms/mn, anaesthetised male rat
Description: 2) Anti-arythmic action in the rat
Male rate weighing 300-350 g anaesthetised by interperitonal route using 1.20 g/kg of urethane are tracheotomized and subjected to artificial respiration (40-50 insufflations of 3 ml/minute).
needles are implanted subcutaneously so as to record the rats' electrocardiogram on the DII derivation signal.
The test products are administered by intravenous route. Five minutes after administration of the product, the jugular vein is perfused with aconitine at the rate of 10 micrograms/mn and the time taken for the appearance of cardiac rhythm disorders is noted.
The results are expressed as a percentage of the increase in the time taken for cardiac rhythm disorders to appear relative to the controls and according to the dose of the test product.

opiated K Receptor = target: T1, opiated K Receptor (Cavia porcellus, UniProt P41144); assay: Bonding to the opiated K Receptor in Vitro; assay type: binding; settings: displacement of 1 nM 3H-ethylketocyclazocin, guinea pig brain membranes, Tris pH 7.7, 25° C., 40 minutes
T1 construct: Membrane samples preserved at -30° C; (optionally for approximately 30 days) are used and prepared from guinea pig brains; from tissue; host or cells: guinea pig brain membranes
Description: 1) Bonding to the opiated K Receptor in Vitro
Membrane samples preserved at -30° C. (optionally for approximately 30 days) are used and prepared from guinea pig brains.
These samples are put in suspension in Tris pH 7.7 buffer. Fractions of 2 cm^3 are distributed in hemolysis tubes and 1 nM of 9^3 H-ethylketocyclazocin and the product to be studied are added. The product is first tested at 5×10^-6 M (in triplicate). When the test product displaces more than 50% of the radioactivity linked specifically to the receptor, it is tested again according to a range of 7 doses so as to determine the dose that inhibits 50% of the radioactivity linked specifically to the receptor. Thus the 50% inhibiting concentration is determined.
The non-specific bond is determined by the addition of known product under the name U-50488 H (Lahti et al. 1982, Life Sci. 31, 2257) at 10^-5 M (in triplicate). After incubating at 25° C. for 40 minutes, returning to the water bath at 0° C. for 5 minutes, filtering under vacuum, rinsing with Tris pH 7.7 buffer, the radioactivity is counted in the presence of Trition scintillator.
The result is expressed directly as 50% inhibiting concentration (IC50), namely as the concentration of studied product expressed in nM, necessary to displace 50% of the radioactivity specifically fixed on the studied receptor.

T1 sequence (P41144 whole entry): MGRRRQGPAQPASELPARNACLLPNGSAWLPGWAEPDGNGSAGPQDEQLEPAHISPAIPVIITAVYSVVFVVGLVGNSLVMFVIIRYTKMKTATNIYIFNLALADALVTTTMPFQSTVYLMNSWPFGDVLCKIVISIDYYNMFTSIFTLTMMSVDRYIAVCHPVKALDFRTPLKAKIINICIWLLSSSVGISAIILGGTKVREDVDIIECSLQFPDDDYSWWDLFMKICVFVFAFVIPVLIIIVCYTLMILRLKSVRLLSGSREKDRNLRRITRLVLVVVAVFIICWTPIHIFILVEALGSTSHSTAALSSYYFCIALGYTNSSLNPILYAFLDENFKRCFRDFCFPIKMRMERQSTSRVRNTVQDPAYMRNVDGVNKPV

SMILES	Percentage increase in time (taken for cardiac rhythm disorders to appear relative to the controls) (cardiac rhythm disorders; dose 2.5 mg/kg, 2.5 mg/kg) [%]	Percentage increase in time (taken for cardiac rhythm disorders to appear relative to the controls) (cardiac rhythm disorders; dose 5 mg/kg, 5 mg/kg) [%]	IC50 (opiated K Receptor) [nM]	Percentage increase in time (taken for cardiac rhythm disorders to appear relative to the controls) (cardiac rhythm disorders; dose 2.5 mg/kg) [%]	Percentage increase in time (taken for cardiac rhythm disorders to appear relative to the controls) (cardiac rhythm disorders; dose 5 mg/kg) [%]
O=C1C(c2ccc(Cl)c(Cl)c2)CCCN1[C@@H]1CCCC[C@H]1N1CCCC1 (mixture of isomers) [Example 5, [Trans, (±)]-3-(3,4-dichlorophenyl)-1-[2-(1-pyrrolidinyl)-cyclohexyl]-2-piperidinone]	26	33	–	–	–
COc1ccc(C2=CCCN([C@@H]3CCCC[C@H]3N3CCCC3)C2=O)cc1OC (relative stereo) [Example 8, [Trans-(±)]-5,6-dihydro-3-(3,4-dimethoxyphenyl)-1-[2(1-pyrrolidinyl)-cyclohexyl]-2-[1H)-pyridinone]	–	–	9	–	–
O=C1C(c2ccc(Cl)c(Cl)c2)=CCCN1[C@@H]1CCCC[C@H]1N1CCCC1 (relative stereo) [Example 3, [Trans, (±)]-3-(3,4-dichlorophenyl)-5,6-dihydro-1-[2-(1-pyrrolidinyl)cyclohexyl)-2-(1H)-pyridinone]	–	–	–	52	55
COc1ccc(C2C(=O)CCN([C@@H]3CCCC[C@H]3N3CCCC3)C2=O)cc1OC (mixture of isomers) [Example 7, [Trans,(±)]-3-(3,4-dimethoxy-phenyl)-1-[2-(1-pyrrolidinyl)-cyclohexyl]-2,4-piperidinedione]	–	–	0.2	–	–
O=C1C(c2ccc(Cl)c(Cl)c2)CCCN1[C@@H]1CCCC[C@H]1N1CCCC1 (mixture of isomers) [Example 4, [Trans, (±)]-3-(3,4-dichlorophenyl)-1-[2-(1-pyrrolidinyl)-cyclohexyl]-2piperidinone]	23	48	22	–	–
